Like-named read-outs stand apart in the source and are kept apart here.
Key:
[1] = Hepatocyte stability assay, human; assay type: in vitro ADME; conditions: human, hepatocytes; for hepatocyte CLint at 10 μM: Hepatocyte stability Clint; for half-life at 10 μM: Hepatocyte stability T½
Method in brief: (§1)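 Thawed cryopreserved hepatocytes (viability >70%) at 0.5×10^6 cells/mL in Leibovitz buffer were preincubated at 37° C, then given 10 μM compound (0.1% DMSO) in duplicate. Samples at 0–60 min were quenched in acetonitrile and analysed by LC-MS/MS. Intrinsic clearance and half-life were derived from ln % remaining versus time.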

[2] = system: NRF2 (nuclear factor erythroid 2-related factor 2); assay: NRF2 +/-GSH activation assay (DiscoverX PathHunter NRF2 translocation kit, U2OS cells); assay type: cell-based; conditions: for NRF2 activation +GSH Emax / NRF2 activation −GSH Emax: normalised to DMF high control
Method in brief: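 Activation is expressed as percent of plate DMF (high) versus no-DMF (low) controls, from luminescence after 6 h compound exposure at 37 °C of U2OS PathHunter cells. The +GSH condition used compound pre-incubated 30 min in 6 mM working GSH; −GSH cells received compound directly.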

[3] = system: IL-1β cytokine output from THP-1s; assay: THP-1 AlphaLISA IL-1β cytokine inhibition assay; assay type: cell-based; conditions: for IC50: Homo sapiens, THP-1, differentiated THP-1 cells, LPS then nigericin; for IL-1β lowering, result in words: THP-1 IL-1β assay
Method in brief: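 IL-1β release by AlphaLISA, expressed as % inhibition against +/− LPS controls on each plate. Differentiation: PMA, 72 h. Sequence: 30 min compound pre-treatment, LPS 24 h, Nigericin 1 h before supernatant harvest, all at 37° C./5% CO2.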

[4] = Hepatocyte stability assay, mouse; assay type: in vitro ADME; conditions: mouse, hepatocytes; for hepatocyte CLint at 10 μM: Hepatocyte stability Clint; for half-life at 10 μM: Hepatocyte stability T½
Method in brief: as §1

[5] = +GSH, 30 minute compound-GSH pre-incubation, read-out: NRF2 activation +GSH EC50
[6] = −GSH, U2OS PathHunter cells, 6 hours compound treatment, read-out: NRF2 activation −GSH EC50

SMILES	hepatocyte CLint at 10 μM [1]	half-life at 10 μM [1]	EC50 [2, 5]	NRF2 activation +GSH Emax ([2]; +GSH)	EC50 [2, 6]	NRF2 activation −GSH Emax ([2]; −GSH)	IC50 [3]	hepatocyte CLint at 10 μM [4]	half-life at 10 μM [4]	IL-1β lowering, result in words [3]
C=C(Cc1nc(C(F)(F)c2ccc(OC(F)(F)F)cc2)no1)C(=O)O [Example 94, 2-((3-(difluoro(4-(trifluoromethoxy)phenyl)methyl)-1,2,4-oxadiazol-5-yl)methyl)acrylic acid]	< 3 µL/min/1e6 cells	> 7.67 h	13.8 µM	183%	7.9 µM	208%	20.5 µM	29 µL/min/1e6 cells	1.1 h	–
C=C(Cc1nc(Cc2ccc3ccccc3c2)no1)C(=O)O [Example 9, 2-((3-(naphthalen-2-ylmethyl)-1,2,4-oxadiazol-5-yl)methyl)acrylic acid]	7 µL/min/1e6 cells	3.02 h	69.9 µM	44%	42.7 µM	51%	54.7 µM	41 µL/min/1e6 cells	0.417 h	–
C=C(Cc1nc(C2CCCCCCC2)no1)C(=O)O [Example 63, 2-((3-cyclooctyl-1,2,4-oxadiazol-5-yl)methyl)acrylic acid]	8 µL/min/1e6 cells	2.82 h	58 µM	49%	25.8 µM	114%	> 100 µM	23 µL/min/1e6 cells	1 h	not effective
C=C(Cc1nc(Cc2ccc(OC(F)(F)F)cc2)no1)C(=O)O [Example 46, 2-((3-(4-(trifluoromethoxy)benzyl)-1,2,4-oxadiazol-5-yl)methyl)acrylic acid]	< 3 µL/min/1e6 cells	> 7.45 h	36.2 µM	51%	31.1 µM	106%	41.9 µM	17 µL/min/1e6 cells	1.27 h	–
C=C(Cc1nc(Cc2ccc(Cl)c(Cl)c2)no1)C(=O)O [Example 14, 2-((3-(3,4-dichlorobenzyl)-1,2,4-oxadiazol-5-yl)methyl)acrylic acid]	6 µL/min/1e6 cells	4 h	52.2 µM	46%	21.8 µM	78%	> 100 µM	18 µL/min/1e6 cells	1.2 h	not effective
C=C(Cc1nc(CCCCCCCC)co1)C(=O)O [Example 39, 2-((4-octyloxazol-2-yl)methyl)acrylic acid]	386 µL/min/1e6 cells	0.05 h	7.6 µM	172%	5.1 µM	234%	8.5 µM	> 460 µL/min/1e6 cells	< 0.05 h	–
C=C(Cc1nc(-c2ccc(OCCCC(F)(F)F)cc2)no1)C(=O)O [Example 146, 2-((3-(4-(4,4,4-trifluorobutoxy)phenyl)-1,2,4-oxadiazol-5-yl)methyl)acrylic acid]	36 µL/min/1e6 cells	0.683 h	14.6 µM	125%	13.1 µM	177%	> 31.6 µM	194 µL/min/1e6 cells	0.133 h	–
C=C(Cc1nc(Cc2ccc(C(F)(F)F)cc2)no1)C(=O)O [Example 42, 2-((3-(4-(trifluoromethyl)benzyl)-1,2,4-oxadiazol-5-yl)methyl)acrylic acid]	< 3 µL/min/1e6 cells	> 7.67 h	> 100 µM	8%	> 100 µM	63%	27 µM	11 µL/min/1e6 cells	1.97 h	–

Source: patent US12617762B2, “Carboxy derivatives with antiinflamatory properties” (Sitryx Therapeutics Limited, priority 2019, dated 2026)
